Data reported in patent publication US20220062431A1, “COMPOUNDS COMPRISING STAPLED OR STITCHED PEPTIDES FOR IMPROVED DRUG DELIVERY” (Sutura Therapeutics Ltd, priority 2017, published 2022).
“Also recorded” adds a separate entry of the source. Positions of bridges follow the written chain, without caps; N, C: chain ends. Non-standard residues stand in square brackets, D forms with d. Residues, ends and D or L forms follow the SMILES beside them. *: point of attachment. FITC = O=C1OC2(c3ccc(O)cc3Oc3cc(O)ccc32)c2ccc(NC(=S)*)cc21; PEG6 = NCCOCCOCCOCCOCCOCCOCCC(=O)O; S5 = C=CCCC[C@](C)(N)C(=O)O

How the values were obtained:
HeLa pLuc 705 cells [1] = test: Flow cytometry uptake of FITC labeled CPAs (FL1+ cells, MFI); type: cell-based; conditions: 4 hours; for number of FL1 positive cells, cyclized vs non-cyclised (NC) peptide: cyclised peptide compared to its non-cyclised control
Method: (§1) HeLa pLuc705 cells were cultured in high glucose DMEM supplemented with 10% foetal calf serum (Sigma, UK) at 37° C. under an 8% CO2/92% air atmosphere.
(§2) HeLa pLuc705 cells were setup in 96 well plates with the appropriate dilutions of test compounds either FITC labeled peptides or FITC labeled PMO conjugates diluted into complete culture media (up to 100 µM). Cells were then then trypsinised, diluted to 4×10^5 cells per mL and 100 μL added to each well giving a final volume of 200 μL in each well. Cells were then incubated for either 4 or 24 hours at either 4 or 37° c.
(§3) Uptake of fluorescently-labelled PMO and peptides was determined by flow cytometry using an Accuri C6 flow cytometer. Cells were washed with PBS and glycine buffer then released with trypsin, and kept on ice before analysis in PBS containing 2.5% FBS. Cell fluorescence in single live cells was determined using FlowJo software after appropriate gating. Untreated cells were used to establish gating settings for the determination of the % fluorescein-positive cells, mean fluorescent intensity (MFI) was also calculated. Uptake was determined by gating cells that were able exclude cell-impermanent die (To-pro-3) indicating the ability of cells to retain membrane integrity.

HeLa pLuc 705 cells [2] = test: % viable cells judged by gated cells compared to negative controls (flow cytometry); type: cell-based
Method: as §1, §2, §3

Row | Structure (SMILES) | MFI, cyclised vs non-cyclised (NC) peptide (HeLa pLuc 705 cells [1]; 2 way ANOVA) | number of FL1 positive cells, cyclized vs non-cyclised (NC) peptide (HeLa pLuc 705 cells [1]; 2 way ANOVA) | number of FL1 positive cells, cyclized vs non-cyclised (NC) peptide (HeLa pLuc 705 cells [1]; 2 way ANOVA, listed as K1E5-CP8M-FITC) | % cell viability compared to RCM1,5-P8M-FITC-3+ (HeLa pLuc 705 cells [2]; 4 hours, all concentrations) | % of cells recovered when normalized to untreated controls (% viable cells) (HeLa pLuc 705 cells [2]; 4 hours, cyclised versus non-cyclised peptide) | cellular toxicity / impact on cell viability (HeLa pLuc 705 cells [2]; all concentrations 0.05 to 100 μM, listed as K1E5-CP8M-FITC) | increase in viability comparing RCM1,5-P8M-FITC to K1E5-P8M-FITC (HeLa pLuc 705 cells [2]; over the range of concentrations (0.05 to 100 μM)) | MFI compared between RCM1,5 charge variants (HeLa pLuc 705 cells [1]; at a given concentration, increase for 3+ at higher concentrations >1 μM) | FL1+ cells compared to other RCM1,5 charge variants (HeLa pLuc 705 cells [1]; over a range of concentrations) | viable cells over RCM1,5-CP8M-FITC-3+ and RCM1,5-CP8M-FITC-2+ (HeLa pLuc 705 cells [2]; 0.05 μM, 4 hours)
1 | CC(C)C[C@@H]1NC(=O)[C@H](CCCNC(=N)N)NC(=O)[C@@H](NC(=O)[C@H](Cc2ccccc2)NC(=O)[C@H](CCCCN)NC(=O)[C@H](CCCNC(=N)N)NC(=O)CCOCCOCCOCCOCCOCCOCCNC(=S)Nc2ccc3c(c2)C(=O)OC32c3ccc(O)cc3Oc3cc(O)ccc32)CCC(=O)NCCCC[C@@H](C(N)=O)NC(=O)[C@H](Cc2ccccc2)NC1=O [K1E5-P8M-FITC] ({FITC-PEG6}-RKFERLFK-NH2; lactam 4-8; N-terminus assumed) | no interaction affect | no significant difference | no difference | increase | no significant difference | no adverse cellular toxicity; also recorded: do not have any negative impact | 70-99% | – | – | –
2 | CC[C@H](C)[C@H](NC(=O)CCOCCOCCOCCOCCOCCOCCNC(=S)Nc1ccc2c(c1)C(=O)OC21c2ccc(O)cc2Oc2cc(O)ccc21)C(=O)N[C@H](C(=O)N[C@@H](Cc1ccccc1)C(=O)N[C@@]1(C)CCCC=CCCC[C@@](C)(C(N)=O)NC(=O)[C@H](Cc2ccccc2)NC(=O)[C@H](CC(C)C)NC(=O)[C@H]([C@@H](C)CC)NC1=O)[C@@H](C)CC [RCM1,5-P8M-FITC-0+] ({FITC-PEG6}-IIF[S5]ILF[S5]-NH2; staple 4-8) | – | – | – | – | – | – | – | no significant difference | increase | increase
